For one data set, the target named is T1, CYP4A11 (Homo sapiens, UniProt Q02928).
T1 sequence (Q02928 5-519): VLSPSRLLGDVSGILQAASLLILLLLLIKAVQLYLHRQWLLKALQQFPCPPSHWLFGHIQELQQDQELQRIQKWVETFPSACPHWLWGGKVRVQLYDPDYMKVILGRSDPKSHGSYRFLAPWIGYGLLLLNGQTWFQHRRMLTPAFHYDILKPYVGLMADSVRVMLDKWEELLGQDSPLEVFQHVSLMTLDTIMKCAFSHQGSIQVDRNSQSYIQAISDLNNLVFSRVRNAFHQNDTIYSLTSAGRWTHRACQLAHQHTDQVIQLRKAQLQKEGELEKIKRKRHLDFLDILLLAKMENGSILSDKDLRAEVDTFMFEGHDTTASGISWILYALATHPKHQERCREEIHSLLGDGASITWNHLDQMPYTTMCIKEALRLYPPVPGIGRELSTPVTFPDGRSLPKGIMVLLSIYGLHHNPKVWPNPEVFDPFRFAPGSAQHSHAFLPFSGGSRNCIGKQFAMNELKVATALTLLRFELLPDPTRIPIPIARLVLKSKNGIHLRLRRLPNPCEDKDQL
The data set is described as follows: MONACRA demethylation by recombinant CYP4A11 in Supersomes, high-throughput fluorimetric assay. It counts as biochemical. The following applies: Michaelis–Menten fit, ± = confidence interval P=0.05. More on the design: purchased Gentest (Huntsville, AL), now a part of Discovery Life Sciences lot 2402280; host or cells: insect cells, recombinant baculovirus. As to the method:
(§1) Based on these observations, we developed a high-throughput automated assay applicable for studying SSPs of MONACRA metabolism by microsomal P450 enzymes. In this procedure, the incubation mixtures containing an NADPH-generating system and various substrate concentrations are placed in a multiwell plate and preincubated at 30°C in a thermostated shaker. The reaction is started by adding microsomal suspension to the final concentration of 0.3–1 mg/ml of microsomal protein or 0.02–0.1 µM of recombinant P450 enzymes in Supersomes. Following the incubation for 20 min at 30°C, the reaction is quenched by adding trichloroacetic acid (final concentration […]). After supplementing the wells with Na-glycine buffer (pH 10.4, final concentration 2.1 M), the plates are subjected to scanning the fluorescence spectra with excitation at 375 nm. This assay, which is described in detail in Materials and Methods, allows reliable detection of the concentrations of HONACRA as low as 0.1 µM.
(§2) We used the high-throughput activity assay described above to probe MONACRA metabolism by 16 human microsomal P450 enzymes, namely CYP1A2, CYP2A6, CYP2B6, CYP2C8, CYP2C9, CYP2C19, CYP2D6, CYP2E1, CYP2J2, CYP3A4, CYP3A5, CYP4A11, CYP4F2, CYP4F3A, CYP4F3B, and CYP4F12. […]

The target of another data set is T2, CYP2C8 (Homo sapiens, UniProt P10632).
T2 construct: purchased Gentest (Huntsville, AL), now a part of Discovery Life Sciences lot 81760; host or cells: insect cells, recombinant baculovirus
T2 sequence (P10632 1-490): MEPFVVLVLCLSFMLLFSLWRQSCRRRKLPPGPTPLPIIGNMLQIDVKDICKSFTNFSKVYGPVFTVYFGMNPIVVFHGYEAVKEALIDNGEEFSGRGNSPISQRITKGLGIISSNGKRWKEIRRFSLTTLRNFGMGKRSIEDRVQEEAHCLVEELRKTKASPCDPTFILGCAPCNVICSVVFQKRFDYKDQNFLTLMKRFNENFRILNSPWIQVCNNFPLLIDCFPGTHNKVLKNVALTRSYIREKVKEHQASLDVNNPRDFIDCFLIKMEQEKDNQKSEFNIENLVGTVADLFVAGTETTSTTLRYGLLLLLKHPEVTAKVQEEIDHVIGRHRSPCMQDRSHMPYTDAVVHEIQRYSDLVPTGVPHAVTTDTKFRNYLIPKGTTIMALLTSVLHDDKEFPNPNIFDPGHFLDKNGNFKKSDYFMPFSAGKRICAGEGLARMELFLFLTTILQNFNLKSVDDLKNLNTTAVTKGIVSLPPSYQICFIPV
In words: MONACRA demethylation by recombinant CYP2C8 in Supersomes, high-throughput fluorimetric assay. The class given is biochemical. Here is the method: as §1, §2

Consider 1 compound from PMC12191924, “A new naphthalene-based fluorogenic substrate for cytochrome P450 4A11” (Biochemical Journal, 2025).

Turning to `COc1ccc2cc(C=CC(=O)O)ccc2c1` [MONACRA, 3-(6-methoxynaphthalen-2-yl)acrylic acid], the Vmax on CYP4A11 is 66.8 ± 17.5 min⁻¹. For the same compound, the “rate of MONACRA metabolism by CYP2C8” value at CYP2C8 was “negligibly small”.
